This is an account of results in patent US12492163B2, “9H-fluorene derivatives or their pharmaceutically acceptable salts” (priority 2020, dated 2025).

For test [1], the target named is Recombinant human Aβ1-42 peptide (Homo sapiens (Human), UniProt P05067). The test is described as follows: Thioflavin T test, antiaggregation activity against beta-amyloid. The conditions noted are these: 10 μM test compound, 1.5 μM Aβ1-42; read-out: inh. Aβ aggr. % inh. Format: biochemical. The essentials:
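Aβ1-42 (1.5 μM final, HFIP-pretreated) aggregated in HEPES pH 7.4 with 150 mM NaCl, thioflavin T 10 μM, 3% DMSO, compound 10 μM. Fluorescence (ex 440/em 490 nm) read every 300 s with mixing; plateau values minus t=0 give % inhibition; IC50 by non-linear regression against concentration.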

The test system of another test is Albino Swiss CD-1 mice. Kind of test: Passive avoidance task (scopolamine-induced memory disorders). The test is classed as in vivo, Mus musculus. The conditions noted are these: scopolamine 1 mg/kg s.c. Here is the method:
The research was conducted at the Department of Pharmacodynamics, Faculty of Pharmacy, Jagiellonian University in Krakow. All procedures were approved by the 1st and 2nd Local Ethics Committee for Animal Experiments in Krakow (consent no. 53/2017 and 250/2019) and were performed in accordance with the applicable European Union regulation (86/609/EEC). Males of two different strains of domestic mice (Mus musculus) were used in the study: Albino Swiss CD-1 (body weight approx. 20-24 g, age approx. 6 weeks) and C57BL/6J mice (body weight approx. 18-22 g, age approx. 6 weeks). The CD-1 strain was used for the passive avoidance, spontaneous mobility and rotating rod tests, while the C57BL/6J mice were used for the Morris water maze and the Barnes' maze. The animals were kept in standard, appropriately sized cages, divided into groups with a maximum of 10 animals. The animals in the study groups in the learning phase were intraperitoneally administered the test compound 1 h before the start of the experiments (doses in the preliminary test, i.e. in the passive avoidance test: 10, 30 and 60 mg/kg), and 30 minutes later, 1 mg/kg of scopolamine subcutaneously. Two control groups were used in the tests to assess the procognitive activity of JT-3—one of them received saline and the other saline and scopolamine.
The test assesses contextual memory. The apparatus consists of two chambers (white: 26 cm×26 cm×34 cm; dark: 13 cm×7.5 cm×7.5 cm) separated by a door. The test consists of a two-day procedure. On the first day (acquisition phase), test compound or saline was administered to the animals 1 h prior to testing (i.p. administration). In order to induce memory disorders, scopolamine (1 mg/kg, s.c.) was also administered after 30 min. On the first day of testing, the mouse was placed in the white compartment. […] The latency of entry into the dark chamber was measured. […] After 30 s the door between the compartments was opened and, similarly to the acquisition phase, the latency time of entering the dark compartment was measured. […]

For the next test, the system named is C57BL/6J mice. Kind of test: Morris water maze test (scopolamine). Format: in vivo, Mus musculus. The procedure: The research was conducted at the Department of Pharmacodynamics, Faculty of Pharmacy, Jagiellonian University in Krakow. All procedures were approved by the 1st and 2nd Local Ethics Committee for Animal Experiments in Krakow (consent no. 53/2017 and 250/2019) and were performed in accordance with the applicable European Union regulation (86/609/EEC). Males of two different strains of domestic mice (Mus musculus) were used in the study: Albino Swiss CD-1 (body weight approx. 20-24 g, age approx. 6 weeks) and C57BL/6J mice (body weight approx. 18-22 g, age approx. 6 weeks). […]
At this stage of the study, each mouse underwent four trials every day (trial interval approx. 1 hour). […] During the acquisition (learning) phase, the time and distance traveled to find the platform were measured. Additionally, the trajectories of movement in the pool were analyzed. […] The latency of finding the place where the platform was previously (during the acquisition/learning phase) was measured, as well as the number of crossings through the zone, where the platform was in the acquisition phase. In addition, the total residence time and distance traveled in the relevant quadrant of the pool (in the NW zone where the platform was at the time of acquisition) were measured, as well as the speed and total distance traveled by the animal during the 60 s of the test. […]

SMILES strings stand for the structures.

Sequence of Recombinant human Aβ1-42 peptide (P05067 672-713): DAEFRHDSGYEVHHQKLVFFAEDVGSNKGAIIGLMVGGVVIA

For the compound `O[C@H](CNCC1CC1)[C@H](Cc1ccccc1)NC1c2ccccc2-c2ccccc21` [JT-3, (2R,3S)-3-((9H-fluoren-9-yl)amino)-1-((cyclopropylmethyl)amino)-4-phenylbutan-2-ol], the inhibition at 10 µM in test [1] amounted to 79%. Moreover, the “latency of entry into the dark compartment, recall phase (day 2) vs scopolamine control” value in the test on Albino Swiss CD-1 mice (10 mg/kg i.p., p<0.01) is recorded as “statistically significant difference”; in the test on Albino Swiss CD-1 mice (30 mg/kg i.p.), “not active”; in the test on Albino Swiss CD-1 mice (60 mg/kg i.p.), “not active”. For the same compound, in the test with C57BL/6J mice (10 mg/kg i.p., fifth day of the test, p<0.01), the “latency to find the hidden platform, acquisition phase vs scopolamine control” value was “statistically significant difference”. The “recall phase parameters (time, crossings, distance, entries in NW zone)” value with C57BL/6J mice (seventh day, 10 mg/kg i.p. on days 1-6) is on record as “did not affect any of the parameters studied”.
